Data: ChEMBL document CHEMBL1649183, “Substrate-induced inactivation of the Escherichia coli AmiD N-acetylmuramoyl-L-alanine amidase highlights a new strategy to inhibit this class of enzyme” (Antimicrob Agents Chemother, 2009)
Activity calls are given as the source filed them. The rule behind the calls is not given here.

Key:
Escherichia coli [1] = experiment: Inactivation of histidine6-tagged Escherichia coli LMG194 AmiD at 14 uM
Escherichia coli [2] = experiment: Inactivation of histidine6-tagged Escherichia coli LMG194 AmiD at 27 uM

inhibition (Escherichia coli [1]): Active
inhibition (Escherichia coli [2]): Active
Structure (SMILES): CC(=O)N[C@H]1[C@@H]2OC[C@@H](O2)[C@@H](O[C@@H]2O[C@H](CO)[C@@H](O)C(O)[C@H]2NC(C)=O)[C@@H]1O[C@@H](C)C(=O)N[C@@H](C)C(=O)N[C@H](CCC(=O)N[C@H](CCC[C@H](N)C(=O)O)C(=O)N[C@H](C)C(=O)O)C(=O)O (single isomer, unassigned)
